{"source": "patent US20080300298A1", "about": "“Honokiol Derivates For the Treatment of Proliferative Disorders” (priority 2005, published 2008)", "key": {"normal PBMNCs": {"tested_on": "normal PBMNCs", "experiment": "cells", "assay_type": "cell-based", "conditions": "Homo sapiens", "source_text": "Cells: Dexamethasone (Dex)-sensitive MM.1S (wild-type p53) and Dex-resistant MM.1R, RPMI 8226-Dox40 (doxorubicin resistant) and RPMI 8226-LR5 (melphalan resistant) human multiple myeloma (MM) cell lines were used. RPMI-8226 and U266 cells were obtained from the American Type Culture Collection (Rockville, Md.). SU-DHL-4 cells were also utilized. Fresh peripheral blood mononuclear cells (PBMNCs) were obtained from healthy subjects after informed consent. The PBMNC were separated from heparinized peripheral blood by Ficoll-Hipaque density sedimentation. BM specimens were acquired from patients with MM after obtaining informed consent and mononuclear cells were separated by Ficoll-Hipaque density sedimentation. […]\nReagents: Honokiol (HNK; Calbiochem, San Diego, Calif.) was dissolved in ethanol at 20 mg/ml stock solution. […] Absorbance readings at a wavelength of 450 nm were taken on a spectrophotometer (Molecular Devices Corp., Sunnyvale, Calif.).\nHNK inhibits growth of MM cell lines. To identify the therapeutic potential of HNK, MM cell lines and normal PBMNCs were cultured at indicated concentration with HNK for 48 h, and growth was determined by calorimetric assays. […] FIGS. 6A and B show growth inhibition in MM cell lines by HNK as assessed by calorimetric assay after 48 h-culture. […]"}, "BMSCs": {"tested_on": "BMSCs", "assay_type": "cell-based, human", "procedure": "MNCs in BM specimens were also used to establish long-term bone marrow stromal cell (BMSC) cultures, as described in, for example, Uchiyama et al Blood. 1993; 82:3712-3720 and Hideshmia et al Oncogene. 2001; 20:4519-4527.\nReagents: Honokiol (HNK; Calbiochem, San Diego, Calif.) was dissolved in ethanol at 20 mg/ml stock solution. Recombinant human interleukin-6 (IL-6), vascular endothelial growth factor (VEGF) and insulin-like growth factor-1 (IGF-1) (R&D Systems, Minneapolis, Minn.) were reconstituted with sterile PBS containing 0.1% FBS (IL-6 and VEGF) and 10 mM of acetic acid containing 0.1% FBS (IGF-1), respectively. Pan-caspase inhibitor z-VAD-fmk (Bachem, Bubendorf, Switzerland) was dissolved in methanol. These reagents were stored at −20° C. and diluted by media just before the use. Doxorubicin (Sigma, St Louis, Mo.) was dissolved in sterile water at the concentration of 3.45 mM. As2O3 (5 mM in PBS) was provided by Cell Therapeutics Inc. (Seattle, Wash.). […] Absorbance readings at a wavelength of 450 nm were taken on a spectrophotometer (Molecular Devices Corp., Sunnyvale, Calif.).\nThe effect of HNK on MM cells in the presence of exogenous IL-6 and IGF-1, as well as BMSCs was evaluated. […] DNA synthesis was determined by measuring [^3H]-thymidine incorporation during the last 8 h of 48 h cultures. […]"}, "PARP in KBM-5 cells": {"tested_on": "PARP in KBM-5 cells", "experiment": "PARP cleavage assay", "assay_type": "cell-based, human", "conditions": "KBM-5, TNF 1 nM with honokiol (25 mM printed)", "procedure": "(D) depicts that honokiol enhances TNF-induced cell death.\nPARP cleavage assay. For detection of cleavage products of PARP, whole-cell extracts were prepared by subjecting honokiol-treated cells to lysis in lysis buffer (20 mM Tris, pH 7.4; 250 mM NaCl; 2 mM EDTA, pH 8.0; 0.1% TritonX-100; 0.01 mg/ml aprotinin; 0.005 mg/ml leupeptin; 0.4 mM PMSF; and 4 mM NaVO4). Lysates were spun at 14000 rpm for 10 min to remove insoluble material, resolved by 10% SDS PAGE, and probed with PARP antibodies.\nBy using caspase-activated PARP cleavage, it was shown that the enhanced cytotoxicity was due to apoptosis. TNF-induced PARP cleavage was enhanced in the honokiol-treated cells (FIG. 26C)."}, "MDA-MB-231 cells": {"tested_on": "MDA-MB-231 cells", "experiment": "MDA-MB-231 tumors in nude mice", "assay_type": "in vivo", "procedure": "FIG. 36 is a graph of tumor volume over weeks of tumors in mice. MDA-MB-231 cells were injected into both flanks of athymic nude mice. The mice were treated with daily I.P. injections of either a vehicle (n=5) or HNK (2 mg/d, n=5) for four weeks.\nAnimal studies: All animals were maintained and animal experiments were performed under NIH and institutional guidelines established for the Animal Core Facility at the Cedars-Sinai Medical Center. MDA-MB-231 cells were harvested, washed twice with sterile PBS, counted and re-suspended in Matrigel (BD Biosciences, San Jose, Calif.). Six-week-old female athymic nude mice were injected subcutaneously in both flanks with cells at a density of 1×10^6 viable cells/100 μl. […] Tumor size was measured with a linear caliper for up to 5 weeks, and the volume was estimated by using the equation V=(a×b2)×0.5236, where “a” is the larger dimension and “b” the perpendicular diameter.\nIn vivo activity of HNK against human breast cancer. MDA-MB-231 cells were injected on both flanks of nude mice (1×10^6 cells per injection, five mice per group, two tumors in each mouse), and tumor growth was monitored weekly. […] The mice were treated with daily injections of either 2 mg HNK (100 mg/kg) or a control vehicle for four weeks; and the tumors were measured weekly."}}}
{"smiles": "C=CCc1ccc(O)c(-c2ccc(O)c(CC=C)c2)c1", "note": "[HNK, Honokiol]", "values": [{"measurement": "IC50", "setting": "normal PBMNCs", "value": "40 to 80", "unit": "µg/mL"}, {"measurement": "viability of BMSCs", "setting": "BMSCs", "value": "did not affect the viability of BMSCs"}, {"measurement": "TNF-induced PARP cleavage", "setting": "PARP in KBM-5 cells", "value": "enhanced"}, {"measurement": "tumor growth", "setting": "MDA-MB-231 cells; 2 mg HNK (100 mg/kg) daily i.p., four weeks, p<0.02 from week 2", "value": "complete arrest of tumor growth"}, {"measurement": "tolerability in the animals", "setting": "MDA-MB-231 cells; therapeutically beneficial doses", "value": "well tolerated by the animals"}]}
